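Growth conditions: 96-well plates. Treatment: test compound, 48 hours, 5 concentrations. Analysis: linear interpolation between bracketing concentrations; unreached endpoints set to highest concentration. At the GI50, growth is halved.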 Calls of active or inactive are those of the source. Cut-off read from the data, not from the text of the source: active = GI50 up to about 1.1 µM and inactive = higher.
Columns and labels:
Test in all cases: inhibition of tumour cell growth, NCI panel, 48 h
[1] = test system: SK-MEL-5
[2] = test system: HOP-92
[3] = test system: NCI-H460
[4] = test system: KM12
[5] = test system: SN12C
[6] = test system: U-251
[7] = test system: COLO 205
[8] = test system: SW-620
[9] = test system: SK-MEL-2
[10] = test system: SK-MEL-28
[11] = test system: K562
[12] = test system: RXF 393
[13] = test system: LOX IMVI
[14] = test system: SR
[15] = test system: NCI-H23
[16] = test system: OVCAR-4
[17] = test system: Hs-578T
[18] = test system: DU-145
[19] = test system: MDA-MB-231
[20] = test system: HCT-15
[21] = test system: 786-0
[22] = test system: HCT-116
[23] = test system: ACHN
[24] = test system: M14
[25] = test system: CAKI-1
[26] = test system: EKVX
[27] = test system: RPMI-8226
[28] = test system: OVCAR-3
[29] = test system: NCI-H522
[30] = test system: SF-295
[31] = test system: IGROV-1
[32] = test system: HCC 2998
[33] = test system: HOP-62
[34] = test system: SK-OV-3
[35] = test system: PC-3
[36] = test system: UO-31
[37] = test system: NCI/ADR-RES
[38] = test system: MOLT-4
[39] = test system: SNB-19
[40] = test system: UACC-257
[41] = test system: TK-10
[42] = test system: MCF7
[43] = test system: A549
[44] = test system: A498
[45] = test system: OVCAR-5
[46] = test system: MDA-N
[47] = test system: UACC-62
[48] = test system: NCI-H226
[49] = test system: MDA-MB-435
[50] = test system: SF-268
[51] = test system: HT-29
[52] = test system: Malme-3M
[53] = test system: CCRF-CEM
[54] = test system: T47D

Measured: GI50

Cc1cn(CCCCC2=NCCCN2)c(=O)[nH]c1=O
inactive: [1] > 28.1 µM | [2] 3.66 µM | [3] > 52.5 µM | [4] > 31.3 µM | [5] > 100 µM | [6] > 30.5 µM | [7] > 31.1 µM | [8] > 28.3 µM | [9] > 26.9 µM | [10] > 26.2 µM | [11] > 24.6 µM | [12] 25.8 µM | [13] > 25.6 µM | [14] > 28.9 µM | [15] > 31.2 µM | [16] > 29.5 µM | [17] > 34.4 µM | [18] > 26.6 µM | [19] > 29.4 µM | [21] > 23.9 µM | [22] > 23.3 µM | [23] > 25.2 µM | [24] > 25.2 µM | [25] > 15.1 µM | [26] > 29.9 µM | [27] > 100 µM | [28] > 26.7 µM | [29] > 30.8 µM | [30] 46.5 µM | [31] > 26.5 µM | [32] > 26.3 µM | [33] > 46.6 µM | [34] > 29.6 µM | [35] > 26.7 µM | [36] > 24.8 µM | [37] > 34.8 µM | [38] > 26.7 µM | [39] > 52.8 µM | [40] > 26.2 µM | [41] 9.18 µM | [42] > 26.3 µM | [43] > 35.1 µM | [44] > 31.8 µM | [45] > 30.3 µM | [46] > 100 µM | [47] > 42.2 µM | [48] > 57.7 µM | [49] > 26.7 µM | [50] 1.34 µM
> 32.2 µM: [20]

COc1ccc(-c2oc3ccccc3c(=O)c2O)cc1OC [3-HYDROXY-3',4'-DIMETHOXYFLAVONE]
> 100 µM: [20]
inactive: [1] > 100 µM | [3] 4.69 µM | [6] 4.92 µM | [7] > 100 µM | [8] > 100 µM | [10] 25.3 µM | [11] > 100 µM | [13] 9.95 µM | [51] > 100 µM | [18] 7.16 µM | [19] > 100 µM | [52] > 100 µM | [22] > 100 µM | [23] 10.6 µM | [24] > 100 µM | [25] 55.2 µM | [26] > 100 µM | [28] 47.5 µM | [29] 4.63 µM | [30] 17.4 µM | [31] 14.3 µM | [53] 3.81 µM | [33] 11.2 µM | [34] 4.81 µM | [35] > 100 µM | [36] > 100 µM | [37] 3.77 µM | [54] 99.5 µM | [39] 29 µM | [40] > 100 µM | [41] 12.3 µM | [42] > 100 µM | [43] > 100 µM | [44] 6.92 µM | [45] > 100 µM | [46] > 100 µM | [47] 5.22 µM | [49] > 100 µM | [50] 7.5 µM
